Measured values published in patent publication US12653774B2, “Topical compositions and methods for using same” (MARY KAY INC., priority 2022, dated 2026).

Target: T1, TRPV-1 (Rattus norvegicus, UniProt O35433)
T1 construct: host or cells: PC 12 cells
Assay: Capsaicin induced TRPV-1 mediated calcium flux assay (Fura-2AM) in PC 12 cells
Assay type: cell-based
Experimental: (§1) Briefly, Ca^2+ influx was used as a measure of TRPV-1 activity. PC 12 cells (ATCC CRL-1721) were pre-incubated for 4 hours at 37° C. with the respective noted compounds (e.g., plankton extract (test), or capsazepine (positive control)). Following pre-incubation, treatment media was removed and cells were incubated with 100 μl of 0.67 μM Fura-2-acetoxymethyl ester ((Fura-2AM), a high affinity, intracellular calcium indicator that is ratiometric and UV light—excitable) for 1 hour at 37° C. After incubation, cells were treated with 200 μM of capsaicin to induce TRPV-1 mediated Ca^2+ flux response and fluorescence readings were taken every 7 seconds for 10 minutes at 360/460 nm. Data was normalized to controls, plotted as shown, and area under the curve (AUC) values were determined (see Table 2).
as §1, with “test compounds.” for “noted compounds (e.g., plankton extract (test), or capsazepine (positive control)).”, “Fura-2AM” for “Fura-2-acetoxymethyl ester ((Fura-2AM), a high affinity, intracellular calcium indicator that is ratiometric and UV light—excitable)”, “AUC” for “area under the curve (AUC)”
Ingredient samples were analyzed for their ability to inhibit calcium flux production in PC 12 cells (ATCC CRL-1721). PC 12 cells were maintained and passaged according to the manufacturer's recommended guidelines. For experiments, 1×10^5 cells/well were plated in 96 well black flat bottom plates. Fura-2-Acetoxymethyl ester (Fura-2AM) calcium detection assay kit (Cayman Chemical #14591) was used to detect calcium in the cells post treatment. Capsaicin (Sigma #M202) was used to trigger a response, and capsazepine (Sigma #C191) was used as a positive control. In brief, Ca2^+ influx was used as a measure of TRPV-1 activity. PC 12 cells (ATCC CRL-1721) were pre-incubated for 4 hours at 37° C. with the respective test compounds. Following pre-incubation, treatment media was removed and cells were incubated with 100 μl of 0.67 μM Fura-2AM for 1 hour at 37° C. After incubation, cells were treated with 200μM of capsaicin to induce TRPV-1 mediated Ca^2+ flux response and fluorescence readings were taken every 7 seconds for 10 minutes at 360/460 nm. Following the test period, buffer was removed and 100 μl diluted MTS reagent was added to each well. Cells were incubated for 15 to 30 minutes at 37° C. 5% CO2, and plates were then read at 490 nm. Cell viability was assessed prior to analyzing for calcium flux.
Fluorescence test data was normalized to controls to generate area under the curve (AUC) values. For each control and test, fluorescence arbitrary units (AU) were normalized to controls for timepoints 0, and 0.5-9 minutes. The normalized data was plotted on an XY graph using GraphPad Prism software to generate a calcium flux curve, with time on the X axis, and normalized AU on the Y axis. The AUC was then calculated for the untreated control, and net AUC was determined for each test and control condition.

[1] = 400 μM, pre-incubation 4 hours, then 200 μM capsaicin, positive control

T1 sequence (O35433 whole entry): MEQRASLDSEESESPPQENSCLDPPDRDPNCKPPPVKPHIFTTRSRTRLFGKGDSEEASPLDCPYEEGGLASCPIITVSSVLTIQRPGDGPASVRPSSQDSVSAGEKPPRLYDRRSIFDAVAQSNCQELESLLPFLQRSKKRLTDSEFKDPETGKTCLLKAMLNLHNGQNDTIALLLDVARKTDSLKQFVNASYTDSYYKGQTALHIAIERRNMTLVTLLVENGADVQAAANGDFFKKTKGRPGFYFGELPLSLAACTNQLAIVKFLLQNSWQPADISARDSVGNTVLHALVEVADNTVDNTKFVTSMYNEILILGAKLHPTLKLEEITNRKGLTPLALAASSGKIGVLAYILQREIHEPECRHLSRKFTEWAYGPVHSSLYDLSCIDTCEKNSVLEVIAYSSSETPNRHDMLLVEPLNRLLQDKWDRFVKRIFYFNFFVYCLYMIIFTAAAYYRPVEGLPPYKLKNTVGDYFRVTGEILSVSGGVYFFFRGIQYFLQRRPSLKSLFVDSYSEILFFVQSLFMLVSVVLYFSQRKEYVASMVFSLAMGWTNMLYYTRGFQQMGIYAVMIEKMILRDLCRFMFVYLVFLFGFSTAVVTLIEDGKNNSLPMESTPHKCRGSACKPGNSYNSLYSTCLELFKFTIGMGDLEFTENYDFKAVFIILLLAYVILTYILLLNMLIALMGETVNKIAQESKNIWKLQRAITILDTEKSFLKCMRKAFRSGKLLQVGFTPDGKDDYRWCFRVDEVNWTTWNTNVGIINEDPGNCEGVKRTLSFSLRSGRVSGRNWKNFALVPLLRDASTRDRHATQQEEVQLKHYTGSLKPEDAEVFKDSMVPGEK

AUC [1] | Delta compared to untreated [1] | Percentage activity compared to positive control (400 μM, the positive control itself) | Delta compared to untreated (200 μM, net AUC vs untreated baseline 9.009, negative control) | AUC (200 μM, normalized Ca2+ flux curve, PC 12 cells, negative control) | Percentage activity compared to positive control (200 μM, relative to capsazepine 400 μM, negative control) [%] | SMILES
8.742 | −0.267 | NA (0) % |  |  |  | Oc1cc2c(cc1O)CN(C(=S)NCCc1ccc(Cl)cc1)CCC2 [Capsazepine, capsazepine]
 |  |  | 0.944 | 9.953 | −453.56 | COc1cc(CNC(=O)CCCC/C=C/C(C)C)ccc1O [Capsaicin]
